This note sets out measurements from patent publication US20240207263A1, “SELECTIVE MODULATORS OF ATAXIA TELA[…] (ATM) KINASE AND USES THEREOF” (priority 2021, published 2024).

Assay [1] deals with ATM (Homo sapiens (Human), UniProt Q13315). Put plainly: biochemical. The assay is classed as biochemical. The conditions noted are these: read-out: ATM IC50. The text has this: Assay a): ATM Biochemical Potency
Data was collected by Caliper.

In assay [2] the target is ATR (Homo sapiens (Human), UniProt Q13535). Put plainly: ATR biochemical potency assay (Assay b). Here is the method: Assay b): ATR Biochemical Potency
The plate was incubated at room temperature for 10 minutes. 2× peptide solutions were prepared with FAM-labeled peptide and ATP in the 1× kinase base buffer. […] 40 μl of stop buffer was added to stop reaction. Data were collected by Caliper.

The subject of assay [3] is phosp-KAP1 in MCF-7 cells. The experiment in a line: phosp-KAP1 MCF-7 cellular potency assay (Assay f). As to conditions: Homo sapiens. The assay is classed as cell-based. Here is the method:
Assay f): phosp-KAP1 MCF-7 Cellular Potency
MCF-7 cells were seeded to a 384-well cell-culture plate, 25 μl/well which were incubated at 37° C. and 5% CO2 for 24 hr. Test compounds were added to the 384-well plates. Etoposide at final concentration of 100 μM was then added to each well except Vehicle control wells, which were incubated at 37° C. and 5% CO2 for 1 hour. After medium removal, cells were fixed by the addition of 25 μl/well of 8% paraformaldehyde in PBSA and incubated for 20 minutes at room temperature. After the plates were rinsed 3 times with PBSA, 50 ul permeabilization buffer (0.1% Triton X-100 in PBS) was added and the plates were incubated for 20 minutes at room temperature. After the plates were rinsed with PBSA, block the cells by adding 50 μl of Odyssey Blocking Buffer in 384-well plate and then incubate for 1.5 hours at room temperature. Remove blocking buffer by Plate washer (BioTek ELx405 select CW). […] The plates were rinsed 5 times with PBST (0.1% Tween-20 in PBS).
• 1) Fluorescence intensity (FI) was detected for each well. • 2) % inhibition is calculated as follow:
[formula] • FIpositive: The average FI for the positive controls across the plate. • FIvehicle: The average FI for negative controls across the plate. • 3) Calculate IC50 and Plot effect-dose curve of compounds: • Calculate IC50 by fitting % inhibition values and log of compound concentrations to nonlinear regression (dose response−variable slope) with Graphpad prism 6.0.
Y=Bottom+(Top−Bottom)/(1+10^((Log IC50−X)*HillSlope)) • X: log of compounds concentration; Y: % inhibition

The target of assay [4] is ATM (phospho-ATM Ser1981) in SN38 treated HT-29 cells (Homo sapiens (Human), UniProt Q13315). The experiment in a line: cell-based. Here is the method:
Assay g): ATM SN-38 HT-29 Cellular Potency
SN38 causes single strand DNA breaks (SSBs) which are converted to double strand breaks (DSBs) during replication. ATM plays role of repairing DSBs. Inhibition of ATM was evaluated in SN38 treated HT-29 cells (ATCC, Cat #HTB-38) by high-Content Imaging System
The graphical views were then generated using Prism 7.0 (Graphpad).

Assay [5] relates to FaDu xenograft. The experiment in a line: FaDu xenograft model, radiation combination (Assay i). The assay is classed as in vivo, mouse. The conditions noted are these: for Inhibition (% TGI) Combo: combo with IR; for tumor response in FaDu xenograft efficacy study: oral compound in combination with IR (2 Gy per day, 5 days per cycle). Here is the method:
Assay i): FaDu Xenograft Model
Cell culture: FaDu tumor cells were cultured in an EMEM medium containing inactivated 10% fetal bovine serum, 100 U/ml penicillin and 100 μg/ml streptomycin in a 37° C., 5% CO2 incubator.
Inoculation and grouping: Xenografts were established by implantation of 100 μl of Fadu tumor cell suspension (5×10^6 cells/mouse) subcutaneously into the right flank of female immune-compromised BALB/c nude mice at least 6 weeks of age. Tumours were measured in two dimensions with calipers and the tumour volume was calculated using the following formula: tumor volume=(length×width^2)×0.5. When the average tumor volume reached 100 to 150 mm^3, tumour-bearing mice were randomized into treatment groups.
Treatment and tumor assessment: Animals received 3 to 6 cycles of treatment with compounds combined with radiation therapy. Each cycle included 5 consecutive treatment day plus 2 days' rest. Ionizing radiation was administered using a fractionated schedule of 2 Gy per day administered over 5 consecutive days (total radiation dose=10 Gy/cycle). Compound was given orally 10 minutes before irradiation. The tumour volume and body weight of the mice were measured twice weekly.
Statistical Analysis: The One-Way ANOVA test was used for statistical analysis of tumor volume between groups, and p<0.05 was considered as a significant difference.

The target in assay [6] is mTOR (Homo sapiens (Human), UniProt P42345). Put plainly: mTOR biochemical potency assay (Assay d).
Procedure: Assay d): mTOR Biochemical Potency
Solution of mTOR enzymes (Millipore, Cat. No. 14-770) was prepared in 1× kinase buffer at 4-fold of the final concentration (final concentration: 6 nM) in the assay. 2.5 μl of kinase solution was added to each well of the 384-well assay plate, which contains 2.5 μl of compounds with serially diluted concentration. 2× substrate solution was prepared with ULight-4E-BP1 (Thr37/46) Peptide (PE, Cat. No. TRF0128-M) and ATP in 1× kinase reaction buffer at 2-fold of the final concentration of each reagent in the assay. 5 μl of substrate solution was added to each well of the assay plate to start reaction. The assay plate was incubated at room temperature for 30 minutes. Detection solution of kinase quench buffer (EDTA) and Eu-anti-phospho-4E-BP1 antibody (Thr37/46) (PE, Cat. No. TRF0216-M) were prepared at 2-fold the desired final concentrations of each reagent in Lance detection buffer. 10 μl of detection solution buffer was added to each well of the assay plate.
Assay [7] concerns the target DNA-PK (Homo sapiens (Human), UniProt P78527). Put plainly: DNA-PK biochemical assay (Assay e). Here is the method: Assay e): DNA-PK Biochemical Assay
The final concentration: Substrate 0.2 ug/ml and ATP 20 uM. […] The plate was equilibrated for 2 hr at room temperature.

Assay [8] has as its target PI3Kα (p110α/p85a) (Homo sapiens (Human), UniProt P42336). The experiment in a line: PI3K biochemical potency assay (Assay c), PI3Kα.
Procedure: Assay c): PI3K Biochemical Potency
(§1) 2.5 μl of kinase solution was added to each well of the 384-well assay plate, which contains 2.5 μl of compounds with serially diluted concentration. 2× substrate solution was prepared with PIP2 substrate and ATP in 1× kinase reaction buffer at 2-fold of the final concentration of each reagent in the assay. 5 μl of substrate solution was added to each well of the assay plate to start reaction. The assay plate was incubated at room temperature for 1 hour. 5 μl reaction mix was transferred to a new 384 well plate. 5 μl of ADP-Glo reagent (Promega, Cat. No. v9102/3) was added to each well of the new assay plate to stop the reaction. The plate was shaken slowly and equilibrated for 40 minutes. 10 μl kinase detection reagents were added to each well, which was equilibrated for 60 minutes before read on a plate reader (Envision) for luminescence.
Assay [9] deals with PIK3Cδ (Homo sapiens (Human), UniProt O00329). Put plainly: PI3K biochemical potency assay (Assay c), PIK3Cδ.
Procedure: Assay c): PI3K Biochemical Potency
as §1
Assay [10] addresses PIK3Cβ (p110β) (Homo sapiens (Human), UniProt P42338). Put plainly: PI3K biochemical potency assay (Assay c), PIK3Cβ.
Procedure: Assay c): PI3K Biochemical Potency
as §1
In assay [11] the target is PIK3Cγ (pp110γ) (Homo sapiens (Human), UniProt P48736). The experiment in a line: PI3K biochemical potency assay (Assay c), PIK3Cγ.
Procedure: Assay c): PI3K Biochemical Potency
as §1
Setting [12] is: MCF7, MCF-7 cells, etoposide, read-out: Etoposide MCF-7 cellular IC50.

Structures are written as SMILES. Where two headings read alike, the source gives them in different places.

Chain of PIK3Cγ (pp110γ) (P48736 whole entry): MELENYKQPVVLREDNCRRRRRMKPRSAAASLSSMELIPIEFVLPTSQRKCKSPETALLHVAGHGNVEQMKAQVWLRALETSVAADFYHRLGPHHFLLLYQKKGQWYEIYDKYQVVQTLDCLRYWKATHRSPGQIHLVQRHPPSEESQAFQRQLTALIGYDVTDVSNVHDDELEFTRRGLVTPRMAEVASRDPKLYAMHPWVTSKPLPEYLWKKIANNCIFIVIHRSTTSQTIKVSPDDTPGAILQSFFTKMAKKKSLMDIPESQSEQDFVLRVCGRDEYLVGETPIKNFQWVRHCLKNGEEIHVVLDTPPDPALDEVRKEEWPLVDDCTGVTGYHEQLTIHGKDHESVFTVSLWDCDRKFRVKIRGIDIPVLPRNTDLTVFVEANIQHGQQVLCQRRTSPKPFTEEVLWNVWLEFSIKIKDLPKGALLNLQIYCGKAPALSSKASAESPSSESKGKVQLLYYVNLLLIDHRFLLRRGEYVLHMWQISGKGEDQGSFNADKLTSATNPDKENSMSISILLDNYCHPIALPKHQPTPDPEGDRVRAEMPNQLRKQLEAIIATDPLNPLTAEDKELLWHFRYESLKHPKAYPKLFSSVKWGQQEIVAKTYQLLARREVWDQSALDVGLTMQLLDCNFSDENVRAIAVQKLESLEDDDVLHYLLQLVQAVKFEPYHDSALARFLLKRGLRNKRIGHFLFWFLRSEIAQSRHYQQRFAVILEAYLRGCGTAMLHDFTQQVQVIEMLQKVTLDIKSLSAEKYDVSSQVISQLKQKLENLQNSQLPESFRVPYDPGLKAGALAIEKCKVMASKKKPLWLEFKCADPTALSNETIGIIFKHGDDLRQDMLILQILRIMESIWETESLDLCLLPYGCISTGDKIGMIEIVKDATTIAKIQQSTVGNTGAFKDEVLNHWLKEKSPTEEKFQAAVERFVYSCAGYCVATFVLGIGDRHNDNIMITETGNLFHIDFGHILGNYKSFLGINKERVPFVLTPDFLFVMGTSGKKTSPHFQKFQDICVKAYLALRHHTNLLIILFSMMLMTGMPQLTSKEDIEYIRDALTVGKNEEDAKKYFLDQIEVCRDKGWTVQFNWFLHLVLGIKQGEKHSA
Chain of PIK3Cβ (p110β) (P42338 whole entry, looked up): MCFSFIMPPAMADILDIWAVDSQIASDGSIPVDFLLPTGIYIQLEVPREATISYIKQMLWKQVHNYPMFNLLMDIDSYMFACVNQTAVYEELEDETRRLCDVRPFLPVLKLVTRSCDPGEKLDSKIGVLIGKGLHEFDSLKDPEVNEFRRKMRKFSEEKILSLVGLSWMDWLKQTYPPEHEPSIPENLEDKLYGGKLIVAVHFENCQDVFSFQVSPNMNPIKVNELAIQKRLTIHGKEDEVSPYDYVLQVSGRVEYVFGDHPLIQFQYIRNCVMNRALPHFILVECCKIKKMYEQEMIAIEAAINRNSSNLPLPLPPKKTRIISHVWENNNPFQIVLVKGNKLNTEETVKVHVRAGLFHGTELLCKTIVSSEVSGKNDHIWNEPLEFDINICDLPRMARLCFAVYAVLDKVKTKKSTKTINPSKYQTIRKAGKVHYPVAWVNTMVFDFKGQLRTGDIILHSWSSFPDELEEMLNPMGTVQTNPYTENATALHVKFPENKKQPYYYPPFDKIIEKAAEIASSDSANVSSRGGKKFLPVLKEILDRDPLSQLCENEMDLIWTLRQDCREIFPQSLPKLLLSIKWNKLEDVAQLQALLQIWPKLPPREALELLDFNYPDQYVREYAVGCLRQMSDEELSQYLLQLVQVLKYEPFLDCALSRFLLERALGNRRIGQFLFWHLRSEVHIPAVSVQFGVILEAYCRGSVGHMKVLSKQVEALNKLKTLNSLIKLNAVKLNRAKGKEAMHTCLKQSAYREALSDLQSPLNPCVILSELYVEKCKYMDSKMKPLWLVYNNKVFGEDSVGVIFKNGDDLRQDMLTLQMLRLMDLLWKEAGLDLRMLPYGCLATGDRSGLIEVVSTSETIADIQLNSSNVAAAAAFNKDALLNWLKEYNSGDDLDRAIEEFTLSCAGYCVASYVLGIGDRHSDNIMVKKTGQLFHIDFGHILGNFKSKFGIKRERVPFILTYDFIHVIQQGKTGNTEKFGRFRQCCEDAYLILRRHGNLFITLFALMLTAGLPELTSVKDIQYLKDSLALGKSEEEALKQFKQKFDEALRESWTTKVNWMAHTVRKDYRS
Chain of PIK3Cβ (p110β) (P27986 whole entry partner, looked up): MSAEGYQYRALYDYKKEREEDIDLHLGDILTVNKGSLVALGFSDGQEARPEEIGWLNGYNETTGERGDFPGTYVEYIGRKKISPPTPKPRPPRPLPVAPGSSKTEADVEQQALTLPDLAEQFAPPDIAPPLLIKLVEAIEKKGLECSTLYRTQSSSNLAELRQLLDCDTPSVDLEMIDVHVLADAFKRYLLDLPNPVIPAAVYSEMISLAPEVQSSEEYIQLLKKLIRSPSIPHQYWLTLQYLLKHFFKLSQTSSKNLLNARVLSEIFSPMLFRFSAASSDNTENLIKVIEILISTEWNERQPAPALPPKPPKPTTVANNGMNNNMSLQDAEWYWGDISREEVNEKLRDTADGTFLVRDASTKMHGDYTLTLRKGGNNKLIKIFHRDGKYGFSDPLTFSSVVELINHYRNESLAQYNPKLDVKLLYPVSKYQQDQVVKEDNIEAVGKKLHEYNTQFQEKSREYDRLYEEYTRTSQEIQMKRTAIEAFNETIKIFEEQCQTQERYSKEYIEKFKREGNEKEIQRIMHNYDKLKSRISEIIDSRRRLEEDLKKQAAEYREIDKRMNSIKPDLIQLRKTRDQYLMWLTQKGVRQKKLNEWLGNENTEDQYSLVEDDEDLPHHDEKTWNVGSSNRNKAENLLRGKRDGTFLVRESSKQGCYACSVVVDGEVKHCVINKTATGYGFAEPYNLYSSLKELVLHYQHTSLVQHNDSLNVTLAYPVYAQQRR
Chain of PIK3Cδ (O00329 whole entry, looked up): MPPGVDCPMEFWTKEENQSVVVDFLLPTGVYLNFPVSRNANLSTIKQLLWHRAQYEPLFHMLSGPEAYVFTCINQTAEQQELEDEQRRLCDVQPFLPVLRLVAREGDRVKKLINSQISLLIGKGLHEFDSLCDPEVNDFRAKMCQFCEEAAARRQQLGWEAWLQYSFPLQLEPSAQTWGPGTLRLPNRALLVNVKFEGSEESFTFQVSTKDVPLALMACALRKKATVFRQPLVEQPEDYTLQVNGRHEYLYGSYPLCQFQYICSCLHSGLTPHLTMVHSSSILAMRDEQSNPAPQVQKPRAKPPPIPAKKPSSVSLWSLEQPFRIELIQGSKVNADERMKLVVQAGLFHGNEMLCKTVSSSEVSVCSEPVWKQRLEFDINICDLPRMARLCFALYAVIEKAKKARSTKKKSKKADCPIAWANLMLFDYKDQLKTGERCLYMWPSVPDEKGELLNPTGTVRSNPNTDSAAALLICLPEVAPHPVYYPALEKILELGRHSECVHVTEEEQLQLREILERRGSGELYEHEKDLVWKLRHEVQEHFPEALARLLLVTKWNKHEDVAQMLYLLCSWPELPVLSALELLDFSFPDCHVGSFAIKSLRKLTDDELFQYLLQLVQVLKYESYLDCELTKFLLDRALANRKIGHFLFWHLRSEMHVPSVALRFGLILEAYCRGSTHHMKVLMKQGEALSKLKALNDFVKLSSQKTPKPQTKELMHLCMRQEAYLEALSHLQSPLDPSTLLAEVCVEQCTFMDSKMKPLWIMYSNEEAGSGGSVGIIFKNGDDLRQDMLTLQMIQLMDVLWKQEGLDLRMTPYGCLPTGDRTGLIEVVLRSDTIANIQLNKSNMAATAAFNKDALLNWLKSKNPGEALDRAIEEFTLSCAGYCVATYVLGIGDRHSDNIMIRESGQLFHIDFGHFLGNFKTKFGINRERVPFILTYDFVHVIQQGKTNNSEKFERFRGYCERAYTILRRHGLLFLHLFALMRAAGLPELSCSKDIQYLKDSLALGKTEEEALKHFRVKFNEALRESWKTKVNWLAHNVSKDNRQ
Chain of PIK3Cδ (P27986 whole entry partner, looked up): as the sequence (P27986 whole entry partner, looked up) above
Chain of PI3Kα (p110α/p85a) (P42336 whole entry, looked up): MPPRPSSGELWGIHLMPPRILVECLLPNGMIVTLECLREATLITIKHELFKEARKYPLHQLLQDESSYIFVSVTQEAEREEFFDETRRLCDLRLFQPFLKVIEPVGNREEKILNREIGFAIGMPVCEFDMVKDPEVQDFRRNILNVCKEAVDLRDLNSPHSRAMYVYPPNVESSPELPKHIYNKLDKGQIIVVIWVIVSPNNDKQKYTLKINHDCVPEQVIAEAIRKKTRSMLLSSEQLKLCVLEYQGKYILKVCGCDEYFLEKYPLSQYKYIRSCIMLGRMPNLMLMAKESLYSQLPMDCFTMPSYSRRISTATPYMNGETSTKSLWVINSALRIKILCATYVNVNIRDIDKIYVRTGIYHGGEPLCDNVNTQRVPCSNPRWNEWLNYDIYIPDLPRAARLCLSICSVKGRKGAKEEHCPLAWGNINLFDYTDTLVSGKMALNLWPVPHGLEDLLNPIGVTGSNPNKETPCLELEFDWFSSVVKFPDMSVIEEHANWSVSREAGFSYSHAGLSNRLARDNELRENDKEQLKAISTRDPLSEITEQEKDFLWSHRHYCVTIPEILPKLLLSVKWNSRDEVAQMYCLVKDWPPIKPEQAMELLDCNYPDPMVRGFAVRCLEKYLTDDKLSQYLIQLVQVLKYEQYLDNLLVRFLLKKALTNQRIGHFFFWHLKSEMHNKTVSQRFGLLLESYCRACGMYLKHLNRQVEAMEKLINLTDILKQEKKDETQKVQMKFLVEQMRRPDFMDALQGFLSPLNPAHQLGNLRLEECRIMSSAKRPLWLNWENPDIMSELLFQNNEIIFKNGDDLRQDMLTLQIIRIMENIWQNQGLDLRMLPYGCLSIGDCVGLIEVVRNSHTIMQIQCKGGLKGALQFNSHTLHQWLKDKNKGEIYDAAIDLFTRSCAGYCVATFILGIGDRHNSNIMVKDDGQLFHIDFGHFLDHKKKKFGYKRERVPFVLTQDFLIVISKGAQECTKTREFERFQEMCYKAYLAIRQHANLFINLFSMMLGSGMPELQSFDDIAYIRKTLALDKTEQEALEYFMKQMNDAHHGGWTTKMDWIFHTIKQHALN
Chain of PI3Kα (p110α/p85a) (P27986 whole entry partner, looked up): as the sequence (P27986 whole entry partner, looked up) above

`CO[C@@H]1CCN(CCO[C@H](C)c2ccc(-c3ccc4nnc5c(c4c3)n(C3CCOCC3)c(=O)n5C)cn2)C1` [Example 112, 8-(6-((R)-1-(2-((R)-3-methoxypyrrolidin-1-yl)ethoxy)ethyl)pyridin-3-yl)-3-methyl-1-(tetrahydro-2H-pyran-4-yl)-1H-imidazo[4,5-c]cinnolin-2(3H)-one]: the concentration for half-maximal inhibition (IC50) in assay [1] was 0.0078 µM; in [2], greater than 10 µM; in assay [3] (setting [12]), 0.02 µM; in assay [4] it was 0.018 µM; in assay [6] (read-out: mTor IC50), greater than 10 µM. In addition, the “Inhibition (% TGI) Combo” value in assay [5] (total IR 40 Gy (4 cycles), 30 mg/kg PO. BID) was 77.3 ± 1.67 % TGI; in assay [5] (total IR 40 Gy (4 cycles), 60 mg/kg PO. BID), 79.6 ± 4.20 % TGI; in [5] (total IR 40 Gy (4 cycles), 100 mg/kg PO. BID), 82.9 ± 1.77 % TGI.

With `CC(C)n1c(=O)n(C)c2nnc3ccc(-c4ccc([C@@H](C)OCCN5CCCC5)nc4)cc3c21` [Example 62, (R)-1-isopropyl-3-methyl-8-(6-(1-(2-(pyrrolidin-1-yl)ethoxy)ethyl)pyridin-3-yl)-1,3-dihydro-2H-imidazo[4,5-c]cinnolin-2-one], the IC50 is 0.0078 µM in assay [1], greater than 10 µM in assay [2], 0.021 µM in [4] and greater than 10 µM in assay [6] (read-out: mTor IC50). In assay [5], the “tumor response in FaDu xenograft efficacy study” value is “tumor xenograft regression was observed and tumors did not relapse until the end of the study”. For the same compound, the “Inhibition (% TGI) Combo” value is recorded as 98.7 ± 0.51 % TGI in assay [5] (total IR 30 Gy (3 cycles), 45 mg/kg PO. BID); 80.4 ± 2.20 % TGI in assay [5] (total IR 60 Gy (6 cycles), 10 mg/kg PO. BID); 93.6 ± 1.33 % TGI in assay [5] (total IR 60 Gy (6 cycles), 30 mg/kg PO. BID).

With `CC(C)n1c(=O)n(C)c2nnc3ccc(-c4ccc([C@@H](OCCN5CCCC5)C(F)(F)F)nc4)cc3c21` [Example 185, (R)-1-isopropyl-3-methyl-8-(6-(2,2,2-trifluoro-1-(2-(pyrrolidin-1-yl)ethoxy)ethyl)pyridin-3-yl)-1,3-dihydro-2H-imidazo[4,5-c]cinnolin-2-one], the IC50 in assay [1] is 0.292 µM; in assay [2] it was greater than 10 µM; in assay [7] it was greater than 10 µM; in assay [6] (read-out: mTor IC50), greater than 10 µM; in [8] (read-out: PI3Kα IC50), greater than 10 µM; in [9] (read-out: PI3Kδ IC50), greater than 10 µM. Also, the IC50 in [10] (read-out: PI3Kβ IC50) and in assay [11] (read-out: PI3Kγ IC50) was greater than 10 µM throughout.

As for `CC(C)n1c(=O)n(C)c2nnc3ccc(-c4ccc([C@@H](C)OCCN5CC[C@@H](OC6CC6)C5)nc4)cc3c21` [Example 76, 8-(6-((R)-1-(2-((R)-3-cyclopropoxypyrrolidin-1-yl)ethoxy)ethyl)pyridin-3-yl)-1-isopropyl-3-methyl-1H-imidazo[4,5-c]cinnolin-2(3H)-one], the IC50 in assay [2], in [7], in [6], in assay [8], in assay [9] and in assay [10] was greater than 10 µM throughout. In assay [11], this compound gave an IC50 greater than 10 µM.

Turning to `C[C@@H](OCCN1CCC2(CC2)C1)c1ccc(-c2ccc3nnc4c(c3c2)n(C2CCOCC2)c(=O)n4C)cn1` [Example 102, (R)-8-(6-(1-(2-(5-azaspiro[2.4]heptan-5-yl)ethoxy)ethyl)pyridin-3-yl)-3-methyl-1-(tetrahydro-2H-pyran-4-yl)-1H-imidazo[4,5-c]cinnolin-2(3H)-one], the IC50 in assay [2], in assay [6], in assay [8], in assay [9], in [10] and in [11] was greater than 10 µM each time. The “tumor response in FaDu xenograft efficacy study” value in assay [5] was “tumor xenograft regression was observed and tumors did not relapse until the end of the study”.

As for `CC(C)n1c(=O)n(C)c2nnc3ccc(-c4ccc([C@H](OCCN5CCCC5)C(F)(F)F)nc4)cc3c21` [Example 184, (S)-1-isopropyl-3-methyl-8-(6-(2,2,2-trifluoro-1-(2-(pyrrolidin-1-yl)ethoxy)ethyl)pyridin-3-yl)-1,3-dihydro-2H-imidazo[4,5-c]cinnolin-2-one], the half-inhibitory concentration (IC50) was 0.0028 µM in assay [1]; greater than 10 µM in [2]; greater than 10 µM in assay [7]; greater than 10 µM in assay [6] (read-out: mTor IC50); greater than 10 µM in assay [8] (read-out: PI3Kα IC50); greater than 10 µM in assay [9] (read-out: PI3Kδ IC50). In addition, the IC50 in assay [10] (read-out: PI3Kβ IC50) and in [11] (read-out: PI3Kγ IC50) was greater than 10 µM throughout.

As to `CC(C)n1c(=O)n(C)c2nnc3ccc(-c4ccc([C@@H](C)OCCN5CC[C@@H](C)C5)nc4)cc3c21` [Example 77, 1-isopropyl-3-methyl-8-(6-((R)-1-(2-((R)-3-methylpyrrolidin-1-yl)ethoxy)ethyl)pyridin-3-yl)-1H-imidazo[4,5-c]cinnolin-2(3H)-one], the concentration for half-maximal inhibition (IC50) in assay [1] is 0.0048 µM; in [2] it was greater than 10 µM; in assay [7] it was greater than 10 µM; in [6] (read-out: mTor IC50), greater than 10 µM; in assay [8] (read-out: PI3Kα IC50), greater than 10 µM; in assay [9] (read-out: PI3Kδ IC50), greater than 10 µM. For the same compound, the IC50 in assay [10] (read-out: PI3Kβ IC50) and in assay [11] (read-out: PI3Kγ IC50) was greater than 10 µM in each case.

As to `CC(C)n1c(=O)n(C)c2nnc3ccc(-c4ccc([C@@H](C)OCCN5CCC6(CC6)C5)nc4)cc3c21` [Example 53, (R)-8-(6-(1-(2-(5-azaspiro[2.4]heptan-5-yl)ethoxy)ethyl)pyridin-3-yl)-1-isopropyl-3-methyl-1H-imidazo[4,5-c]cinnolin-2(3H)-one], the half-inhibitory concentration (IC50) in assay [1] was 0.0042 µM; in assay [2], greater than 10 µM; in assay [3] (setting [12]), 0.009 µM; in [4] (HT-29 cells, SN-38, read-out: SN-38 HT-29 cellular IC50) it was 0.011 µM; in assay [6] it was greater than 10 µM; in assay [8], greater than 10 µM. In addition, the concentration for half-maximal inhibition (IC50) in assay [9], in [10] and in assay [11] was greater than 10 µM in each case.

For the compound `C[C@@H](OCCN1CCC2(CC1)CC2)c1ccc(-c2ccc3nnc4c(c3c2)n(C2CCOCC2)c(=O)n4C)cn1` [Example 107, (R)-8-(6-(1-(2-(6-azaspiro[2.5]octan-6-yl)ethoxy)ethyl)pyridin-3-yl)-3-methyl-1-(tetrahydro-2H-pyran-4-yl)-1H-imidazo[4,5-c]cinnolin-2(3H)-one], the IC50 in assay [2] was greater than 10 µM; in assay [3] (MCF7, read-out: Etoposide MCF-7 cellular IC50), 0.012 µM; in assay [6] (read-out: mTor IC50) it was greater than 10 µM.
